Measured values published in patent publication US6927213B2, “Cationic cholesteryl derivatives containing cyclic polar groups” (University of Pittsburgh, priority 1996, dated 2005).
“Also recorded” adds a separate entry of the source. Read-outs that look alike come from different tables or passages of the source.

What was measured:
[1] = system: CHO cells; experiment: Transfection of CHO cells with pCMV-Luc DNA:lipid complexes, luciferase activity; assay type: cell-based, Chinese Hamster; conditions: for luciferase activity (transfection activity): 1 μg pCMV-Luc DNA, liposomes DOPE:cationic lipid 1:1 mol:mol, absence of serum, 36 hours after transfection
[2] = system: CHO cells
[3] = Stability of liposomes, retention of diameter over time; assay type: physicochemical; conditions: all lipid 5:DOPE ratios shown in FIG. 11
Procedure: (§1) 2 μmol of Lipid dissolved in chloroform was transferred to a test tube. A solution of DOPE (2 umol) in chloroform was then added to this test tube. The chloroform was evaporated by passing a stream of nitrogen through the test tube to obtain a thin film of at the bottom of the test tube. Further drying was done in a desiccator under high vacuum for 30 minutes. 2 ml of distilled water was then added to the test tubes. The test tubes were stoppered and vortexed for one minute followed by sonication until the size of the particles was between 100 to 200 nm. The size of the particles was measured by Coulter particle size analyzer.
The X axis of FIG. 11 refers to the total liposomal lipid mixed with 1 μg pCMV-Luc DNA:lipid complexes.

[4] = system: Caski; experiment: Transfection of Caski cells; assay type: cell-based; conditions: data not shown
Procedure: (§2) Lipid 5 was further compared with DC-Chol by transfecting BL6 cells with lipid 5- or DC-Chol-containing DNA:lipid complexes (FIGS. 7 and 8 respectively). […] Lipid 5 was also tested in several cell lines including HeLa, Siha and Caski which are somewhat difficult to transfect when compared with CHO or 293 cells.

[5] = system: Mice; experiment: In vivo transfection with pCMV-Luc DNA:lipid complexes; conditions: intratumoral or intravenous, 30 μg pCMV-Luc DNA with 30 nmols liposomal lipid (1:1 lipid 5:DOPE), 1-5 days
Procedure: Mice are injected intratumorally or intravenously with 50 μl of solution containing pCMV-Luc DNA (30 μg) complexed with 30 nmols of liposomal lipid (1:1 mol/mol lipid 5:DOPE). Animals are sacrificed 1-5 days later and extracts from tumor tissue (intratumor injection) or lung, liver and blood (intravenous injection) are assayed for luciferase activity and protein levels.

[6] = system: Siha; experiment: Transfection of Siha cells; assay type: cell-based; conditions: data not shown
Procedure: as §2

[7] = system: BL6 cells; experiment: Toxicity of lipids: protein per well 36 hours after transfection, BL6 cells; assay type: cell-based, murine; conditions: DOPE:lipid 1:1, FIG. 10
Procedure: Toxicity was assayed by measuring the amount of protein remaining in each well 36 hours after treatment with the indicated amount of liposome.
The toxicity of lipids was assayed by measuring the protein concentration in each well by Coomassie blue reagent (Píerce) 36 hours after transfection. Greater concentrations of protein per well indicated less toxicity of the tested lipids.
FIGS. 9 and 10 show the toxicity of lipid 5 compared to that of DC-Chol in CHO and BL6 cells respectively, where toxicity was assessed by measuring the amount of protein in each well after transfection of cells with DNA:lipid complexes formulated by mixing DNA and liposomes containing DOPE and DC-Chol or DOPE and lipids.

[8] = system: CHO cells; experiment: Toxicity of lipids: protein per well 36 hours after transfection, CHO cells
[9] = system: HeLa; experiment: Transfection of HeLa cells; assay type: cell-based; conditions: data not shown
Procedure: as §2

[10] = system: BL6 cells; experiment: Transfection of BL6 cells with pCMV-Luc DNA:lipid complexes, luciferase activity; assay type: cell-based, murine; conditions: DOPE:lipid 1:1 mol:mol, FIG. 8
Procedure: as §1
(§3) CHO, 293 and BL6 cells were obtained from the American Type Culture Collection (ATCC). Chinese Hamster Ovarian (“CHO”) cells were maintained in F-12 nutrient medium supplemented with 10% fetal bovine serum, antibiotics (1% penicillin-streptomycin) and 1% glutamine; human embryonic kidney 293 cells and murine melanoma BL6 cells were cultured in DMEM medium supplemented with 10% fetal bovine serum, antibiotics (1% penicillin-streptomycin) and 1% glutamine. […]
(§4) Luciferase activity was assayed by measuring the luminescence obtained after adding the substrate (Promega) to in aliquot of lysate. This luminescence was measured in a luminometer for 25 seconds.

[11] = system: 293 cells; experiment: Transfection of 293 cells with pCMV-Luc DNA:lipid complexes, luciferase activity; assay type: cell-based, human; conditions: DOPE:lipid 1:1 mol:mol, FIG. 7
Procedure: as §1, §3, §4

[12] = system: CHO cells; experiment: Serum sensitivity of transfection of CHO cells; assay type: cell-based, Chinese Hamster; conditions: 1 μg DNA, 10% serum

(imidazole) propyl carbamoyl cholesteryl [lipid IM]
luciferase activity (transfection activity) [1]: slightly less active than DC-Chol

CC(C)CCC[C@@H](C)[C@H]1CC[C@H]2[C@@H]3CC=C4C[C@@H](OC(=O)NCCCN5CCOCC5)CC[C@]4(C)[C@H]3CC[C@]12C [lipid 4]
luciferase activity (transfection activity) [1]: lipid 5>DC-Chol>lipid 4; also recorded: reasonable activity

CC(C)CCC[C@@H](C)[C@H]1CC[C@H]2[C@@H]3CC=C4C[C@@H](OC(=O)NCCN5CCCC5)CC[C@]4(C)[C@H]3CC[C@]12C [lipid 6, {N-2-ethylamino[(3′-β-cholesteryl)carbamoyl]}pyrrolidine]
toxicity relative to DC-Chol [2]: less toxic than DC-Chol
luciferase activity (transfection activity) [1]: less active than DC-Chol

CC(C)CCC[C@@H](C)[C@H]1CC[C@H]2[C@@H]3CC=C4C[C@@H](OC(=O)NCCN5CCCCC5)CC[C@]4(C)[C@H]3CC[C@]12C [lipid 7, {N-2-ethylamino[(3′-β-cholesteryl)carbamoyl]}piperidine]
toxicity relative to DC-Chol [2]: less toxic than DC-Chol
luciferase activity (transfection activity) [1]: less active than DC-Chol

CC(C)CCC[C@@H](C)[C@H]1CC[C@H]2[C@@H]3CC=C4C[C@@H](OC(=O)NCCN5CCNCC5)CC[C@]4(C)[C@H]3CC[C@]12C [lipid 2, 4{N-2-ethylamino[(3′-β-cholesteryl)carbamoyl]}piperazine]
luciferase activity (transfection activity) [1]: low activity

CC(C)CCC[C@@H](C)[C@H]1CC[C@H]2[C@@H]3CC=C4C[C@@H](OC(=O)NN5CCN(C)CC5)CC[C@]4(C)[C@H]3CC[C@]12C [lipid 5, N-methyl{4-N-amino[(3′-β-cholesteryl)carbamoyl]}piperazine]
liposome stability (retention of diameter over time) [3]: stable liposomes
ability to transfect cells [4]: slightly better than DC-Chol
in vivo transfection activity (luciferase in tissue extracts) [5]: exhibit in vivo transfection activity
ability to transfect cells [6]: slightly better than DC-Chol
toxicity: amount of protein in each well after transfection [7]: more protein than cells transfected with DC-Chol-containing complex
appearance of transfected cells observed under microscope [2]: healthy
luciferase activity (transfection activity) [1]: lipid 5>DC-Chol>lipid 4; also recorded: high activity
transfection activity (luciferase) ([1]; lipid 5:DOPE ratio of 2:8, FIG. 11): less activity
transfection activity (luciferase) ([1]; lipid 5:DOPE ratio of 4:6, FIG. 11): very similar transfection activities
transfection activity (luciferase) ([1]; lipid 5:DOPE ratio of 5:5, FIG. 11): very similar transfection activities
transfection activity (luciferase) ([1]; lipid 5:DOPE ratio of 6:4, FIG. 11): highest activity among all complexes
transfection activity (luciferase) ([1]; lipid 5:DOPE ratio of 8:2, FIG. 11): less activity
toxicity relative to DC-Chol [8]: reduced toxicity
toxicity: amount of protein in each well after transfection ([8]; CHO cells, DOPE:lipid 1:1, 36 hours, FIG. 9): more protein than cells transfected with DC-Chol-containing complex
ability to transfect cells [9]: slightly better than DC-Chol
luciferase activity (transfection activity) [10]: almost equally as active as DC-Chol
luciferase activity (transfection activity) [11]: almost equally as active as DC-Chol
activity retained relative to the 0% serum complexes ([12]; 5 nmol lipid 5 (1:1 with DOPE)): approximately 40%
activity retained relative to the 0% serum complexes ([12]; 10 nmol lipid 5 (1:1 with DOPE)): approximately 40%
activity retained relative to the 0% serum complexes ([12]; 20 nmol lipid 5 (1:1 with DOPE)): 10%

CC(C)CCC[C@@H](C)[C@H]1CC[C@H]2[C@@H]3CC=C4C[C@@H](OC(=O)NCCN5CCOCC5)CC[C@]4(C)[C@H]3CC[C@]12C [lipid 3, {N-2-ethylamino[(3′-β-cholesteryl)carbamoyl]}morpholine]
luciferase activity (transfection activity) [1]: low activity

pyridyl (ethyl) carbamoyl cholesteryl [lipid PY]
luciferase activity (transfection activity) [1]: much less active
toxicity relative to DC-Chol [8]: comparable toxicity to DC-Chol

CC(C)CCC[C@@H](C)[C@H]1CC[C@H]2[C@@H]3CC=C4C[C@@H](OC(=O)NCCN(C)C)CC[C@]4(C)[C@H]3CC[C@]12C [DC-Chol, 3β [N-(N′,N′-dimethylaminoethane)carbamoyl] cholesterol, reference compound]
luciferase activity (transfection activity) [1]: lipid 5>DC-Chol>lipid 4
appearance of transfected cells observed under microscope ([8]; cell line (CHO or BL6) not specified, data not shown): some necrosis
